From ChEMBL document CHEMBL5233249, “Recent advancements in the development of heterocyclic anti-inflammatory agents” (Eur J Med Chem, 2020)
Values after ≈ are worked out from the molar mass of the structure shown.

Tests used:
[1] = test system: Rattus norvegicus; experiment: Anti-inflammatory activity in Wistar rat assessed as reduced hind paw edema at 25 mg/kg relative to control; format: functional; set-up: scale not given: the % may be the effect or the level left
[2] = molecular target: T1, Polyunsaturated fatty acid 5-lipoxygenase (Homo sapiens, UniProt P09917); experiment: Inhibition of 5-LOX (unknown origin) after 5 mins by colorimetric method
T1 sequence (P09917 whole entry): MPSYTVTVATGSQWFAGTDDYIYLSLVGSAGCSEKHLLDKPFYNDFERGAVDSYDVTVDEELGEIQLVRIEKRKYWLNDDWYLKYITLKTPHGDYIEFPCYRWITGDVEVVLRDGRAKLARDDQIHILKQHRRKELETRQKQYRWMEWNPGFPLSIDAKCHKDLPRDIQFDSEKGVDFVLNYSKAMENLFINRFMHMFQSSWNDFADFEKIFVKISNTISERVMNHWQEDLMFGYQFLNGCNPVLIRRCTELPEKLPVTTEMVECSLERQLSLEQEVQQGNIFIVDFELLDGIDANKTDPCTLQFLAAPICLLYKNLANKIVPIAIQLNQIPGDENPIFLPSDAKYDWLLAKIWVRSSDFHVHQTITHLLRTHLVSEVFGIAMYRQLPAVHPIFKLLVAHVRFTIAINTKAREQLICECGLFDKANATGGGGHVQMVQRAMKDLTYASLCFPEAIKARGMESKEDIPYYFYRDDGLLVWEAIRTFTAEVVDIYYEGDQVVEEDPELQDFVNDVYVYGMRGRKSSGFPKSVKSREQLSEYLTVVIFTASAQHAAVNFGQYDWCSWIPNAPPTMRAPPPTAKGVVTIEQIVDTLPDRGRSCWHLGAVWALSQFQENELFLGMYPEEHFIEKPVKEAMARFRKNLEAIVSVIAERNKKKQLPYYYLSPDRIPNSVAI

[3] = test system: Mus musculus; experiment: Anti-inflammatory activity against Carrageenan-induced paw edema in mouse model assessed as inhibition of edema at 100 mg/kg measured after 3 hrs relative to control; format: functional; set-up: scale not given: the % may be the effect or the level left
[4] = test system: Rattus norvegicus; experiment: Anti-inflammatory activity against Carrageenan-induced paw edema in PO dosed Wistar albino rat assessed as inhibition of edema measured after 1 hr relative to control; format: functional; set-up: scale not given: the % may be the effect or the level left
[5] = test system: Rattus norvegicus; experiment: Anti-inflammatory activity against Carrageenan-induced paw edema in PO dosed Wistar albino rat assessed as inhibition of edema measured after 2 hr relative to control; format: functional; set-up: scale not given: the % may be the effect or the level left
[6] = test system: Rattus norvegicus; experiment: Anti-inflammatory activity against Carrageenan-induced paw edema in PO dosed Wistar albino rat assessed as inhibition of edema measured after 4 hr relative to control; format: functional; set-up: scale not given: the % may be the effect or the level left
[7] = Anti-inflammatory activity assessed as heat -induced protein denaturation using hen egg albumin at 31.25 ug/ml relative to control; format: functional; details: dose 31.25 µg/ml
[8] = Anti-inflammatory activity assessed using bovine serum albumin/egg albumin proteins assessed as protein denaturation measured at 95 degC for 20 mins by measuring turbidity by UV-Vis spectrophotometer; format: functional
[9] = test system: Erythrocyte; experiment: Anti-inflammatory activity in rat red blood cells assessed as stabilization of cell membrane at 200 microg/ml relative to control; format: functional; details: dose 200 µg/ml
[10] = test system: Erythrocyte; experiment: Anti-inflammatory activity in rat red blood cells assessed as stabilization of cell membrane at 500 microg/ml relative to control; format: functional; details: dose 500 µg/ml
[11] = Antioxidant activity assessed as DPPH radical scavenging activity incubated for 20 mins by spectrophotometric analysis; format: functional
[12] = test system: RAW264.7; experiment: Anti-inflammatory activity in mouse RAW264.7 cells assessed as inhibition of LPS-induced NO production in macrophages; format: functional, cell-based
[13] = Selectivity index, ratio of IC50 for ovine COX1 to IC50 for recombinant human COX2
[14] = test system: Rattus norvegicus; experiment: Anti-inflammatory activity against formalin-induced foot paw edema in PO dosed rat at 10 mg/kg assessed as inhibition of edema measured after 5 hr relative to control; format: functional; set-up: scale not given: the % may be the effect or the level left
[15] = test system: Rattus norvegicus; experiment: Anti-ulcerative activity in aspirin induced Wistar rat ulcer model assessed as inhibition of ulcer index at 20 mg/kg,po; format: functional
[16] = test system: Rattus norvegicus; experiment: Anti-inflammatory activity in Carageenan-induced foot paw edema in Swiss albino rat assessed as reduction in volume of paw edema measured after 1 hr relative to control; format: functional; set-up: scale not given: the % may be the effect or the level left
[17] = test system: Rattus norvegicus; experiment: Anti-inflammatory activity in Carageenan-induced foot paw edema in Swiss albino rat assessed as reduction in volume of paw edema measured after 2 hr relative to control; format: functional; set-up: scale not given: the % may be the effect or the level left
[18] = test system: Rattus norvegicus; experiment: Anti-inflammatory activity in Carageenan-induced foot paw edema in Swiss albino rat assessed as reduction in volume of paw edema measured after 4 hr relative to control; format: functional; set-up: scale not given: the % may be the effect or the level left
[19] = test system: Rattus norvegicus; experiment: Anti-inflammatory activity in Carageenan-induced foot paw edema in Swiss albino rat assessed as reduction in volume of paw edema measured after 6 hr relative to control; format: functional; set-up: scale not given: the % may be the effect or the level left
[20] = molecular target: T2, Prostaglandin G/H synthase 2 (Homo sapiens) (UniProt P35354); experiment: Inhibition of COX-2 (unknown origin) assessed as inhibition at 100 mg/kg relative to control; format: organism-based
T2 sequence (whole entry): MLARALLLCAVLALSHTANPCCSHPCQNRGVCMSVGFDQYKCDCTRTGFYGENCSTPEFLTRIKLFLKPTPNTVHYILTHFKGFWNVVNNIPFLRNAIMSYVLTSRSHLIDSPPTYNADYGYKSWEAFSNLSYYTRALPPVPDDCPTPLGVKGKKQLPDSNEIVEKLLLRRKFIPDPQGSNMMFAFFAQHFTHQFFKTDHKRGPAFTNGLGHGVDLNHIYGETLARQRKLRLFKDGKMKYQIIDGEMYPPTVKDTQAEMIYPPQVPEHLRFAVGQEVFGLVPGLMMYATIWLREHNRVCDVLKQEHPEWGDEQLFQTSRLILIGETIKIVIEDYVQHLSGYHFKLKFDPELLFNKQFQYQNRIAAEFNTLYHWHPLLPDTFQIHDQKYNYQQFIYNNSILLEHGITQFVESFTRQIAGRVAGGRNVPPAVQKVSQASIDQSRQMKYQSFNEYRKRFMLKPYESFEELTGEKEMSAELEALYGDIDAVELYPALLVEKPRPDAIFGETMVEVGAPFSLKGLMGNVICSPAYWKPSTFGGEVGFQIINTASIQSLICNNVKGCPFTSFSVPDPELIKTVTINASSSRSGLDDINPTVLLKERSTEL

[21] = test system: RAW264.7; experiment: Anti-inflammatory activity in mouse RAW264.7 cells assessed as inhibition of LPS-induced NO production measured after 24 hrs; format: functional, cell-based; details: RAW264.7, 24 h
[22] = test system: Mus musculus; experiment: Anti-inflammatory activity in Carrageenan-induced paw edema mouse model assessed as inhibition of granuloma measured after 24 hrs relative to control; format: functional
[23] = test system: Rattus norvegicus; experiment: Anti-inflammatory activity against formalin-induced foot paw edema in Wistar rat at 5 mg/kg, po assessed as inhibition of edema measured after 4 hr relative to control; format: functional
[24] = test system: Rattus norvegicus; experiment: Anti-inflammatory activity against Carrageenan-induced paw edema in PO dosed Wistar albino rat assessed as inhibition of edema measured after 3 hr relative to control; format: functional; set-up: scale not given: the % may be the effect or the level left

SMILES: NS(=O)(=O)c1ccc(-n2nc(C(=O)NNC(=O)c3cccc(Cl)c3)cc2-c2ccccc2)cc1
- Activity [1]: >60%

SMILES: O=C(O)c1ccc(CSc2nc3cc(F)c(Oc4ccc(F)cc4)cc3[nH]2)cc1
- IC50 [2]: 900 nM
- Activity [3]: 66.13%

SMILES: CC(C)(CO)NC(=O)CCCC(=O)/C=C/c1cn(-c2ccccc2)nc1-c1ccccc1
- Activity [4]: 40%
- Activity [5]: 25.56%
- Activity [6]: 30.95%

SMILES: COc1ccc2oc(=O)cc(COc3ccc4ccccc4c3/C=N/c3c(C)n(C)n(-c4ccccc4)c3=O)c2c1
- Activity [7]: 53.6%

SMILES: Cc1ccc(-c2nn(-c3ccccc3)cc2CCC(=O)OCc2cn(-c3ccc([N+](=O)[O-])cc3)nn2)cc1
- IC50 [8]: 57.24 µg/mL (≈ 113 µM)
- Activity [9]: 74%
- Activity [10]: 97%

SMILES: O=C1O[C@H]([C@@H](O)CO)C(O)=C1O
- Activity [11]: 81.3%

SMILES: C[C@]12CCC(=O)C=C1CC[C@@H]1[C@@H]2[C@@H](O)C[C@@]2(C)[C@H]1CC[C@]2(O)C(=O)CO [HYDROCORTISONE]
- IC50 [12]: 3260 nM

SMILES: COc1ccc(N2C(=O)/C(=C/c3cn(-c4ccc(S(C)(=O)=O)cc4)nc3-c3cccc(Cl)c3)NC2=S)cc1
- Selectivity Index [13]: 9.32
- Activity [14]: 60%
- UI [15]: 2.64

SMILES: CCCC1Nc2cc(C(=O)N/N=C/c3ccc(Cl)cc3Cl)cc(C)c2N1 (centres undefined)
- Activity [16]: 45.5%
- Activity [17]: 59.38%
- Activity [18]: 81.4%
- Activity [19]: 90.3%

SMILES: NS(=O)(=O)c1ccc(-n2nc(C(=O)NNC(=O)c3cccc(C(F)(F)F)c3)cc2-c2ccccc2)cc1
- Selectivity Index [13]: 10
- Activity [1]: 62.48%

SMILES: C=CC(CO)[C@@H]1C[C@H]2c3[nH]c4ccccc4c3CCN2C(=O)[C@H]1CO (some centres undefined)
- IC50 [12]: 1180 nM

SMILES: Cc1ccc(-c2nn(-c3ccccc3)cc2C(O)C(F)(F)C(=O)NN)cc1 (centres undefined)
- inhibition [20]: 33.7%
- Activity [11]: 70.9%

SMILES: C[C@@H]1C[C@H]2[C@@H]3CCC4=CC(=O)C=C[C@]4(C)[C@@]3(F)[C@@H](O)C[C@]2(C)[C@@]1(O)C(=O)CO [DEXAMETHASONE]
- IC50 [21]: 620 nM

SMILES: C[C@]12CC[C@H]3[C@@H](CC=C4C[C@@H](O)CC[C@@]43C)[C@@H]1CC[C@@H]2C1=NN(C(N)=S)C(c2cccc(F)c2)C1 (some centres undefined)
- IC50 [21]: 860 nM

SMILES: O=C1CSC(=S)C1NC1=NC2C(C=NN2c2ccccc2)C(=O)N1c1ccccc1 (centres undefined)
- inhibition (INH) [22]: 45.6%
- inhibition in vivo at 5 mg/kg [23]: 85.7%

SMILES: N#CC(/N=N/c1ccc2c(c1)CCC2)=C(\N)N1CCCCC1
- Activity [24]: 63.95%

SMILES: COc1ccc(-c2nn(-c3ccccc3)cc2CCC(=O)OCc2cn(-c3cccc(Cl)c3)nn2)cc1
- IC50 [8]: 60.56 µg/mL (≈ 118 µM)
- Activity [9]: 70%
- Activity [10]: 94%

SMILES: O=C(O)C(F)(F)C(O)c1cn(-c2ccccc2)nc1-c1ccc(Cl)cc1Cl (centres undefined)
- inhibition [20]: 38.6%
- Activity [11]: 76%
